Assay results from publication PMC9457740, “GC-MS Chemical Profiling, Biological Investigation of Three Salvia Species Growing in Uzbekistan” (Molecules, 2022).

How the values were obtained:
Type in all cases: biochemical
[1] = metal chelating assay (EDTA chelating activity); conditions: mean ± S.D.; NA: not active
Description: (§1) Six in vitro assays were employed to evaluate the antioxidant activity of the three Salvia EOs. These were radical scavenging activity using 2,2-diphenyl-1-picryl-hydrazyl (DPPH), 2,2′-azino-bis(3-ethylbenzothiazoline-6-sulfonic acid) (ABTS) radical cation-based assay, total antioxidant capacity using cupric-reducing antioxidant capacity assay (CUPRAC), ferric-reducing antioxidant power assay (FRAP), EDTA chelating activity and phosphomolybdenum (PBD) assay.
(§2) In vitro assays were employed to evaluate the antioxidant activity of the three Salvia EOs using the 2,2-diphenyl-1-picryl-hydrazyl (DPPH), 2,2′-azino-bis(3-ethylbenzothiazoline-6-sulfonic acid) (ABTS) radical-cation-based assay, total antioxidant capacity using cupric-reducing antioxidant capacity assay (CUPRAC), ferric-reducing antioxidant power assay (FRAP), EDTA chelating activity and phosphomolybdenum (PBD) assay. These assays were performed according to previously described standard procedures, and values are expressed as Trolox or EDTA equivalent. The experimental procedures are given in supplemental materials. To provide a comparison with standard compounds, IC50 values (the half inhibitory concentration) were also calculated for DPPH, ABTS and metal chelating assays.

[2] = cupric-reducing antioxidant capacity assay (CUPRAC); conditions: concentration at which absorbance is 0.5; mean ± S.D.
Description: as §1, §2

[3] = phosphomolybdenum (PBD) assay; conditions: concentration at which absorbance is 0.5; mean ± S.D.
Description: as §1, §2

[4] = ABTS radical cation-based assay; conditions: mean ± S.D.
Description: as §1, §2

[5] = ferric-reducing antioxidant power assay (FRAP); conditions: concentration at which absorbance is 0.5; mean ± S.D.
Description: as §1, §2

[6] = DPPH radical scavenging assay; conditions: mean ± S.D. of three measurements; NA: not active
Description: as §1, §2

| SMILES | Chelating IC50 [1] | CUPRAC IC50 [2] | PBD IC50 [3] | ABTS IC50 [4] | FRAP IC50 [5] | DPPH IC50 [6] |
| --- | --- | --- | --- | --- | --- | --- |
| O=C(O)CN(CCN(CC(=O)O)CC(=O)O)CC(=O)O [EDTA] | 40 ± 10 µg/mL |  |  |  |  |  |
| Cc1c(C)c2c(c(C)c1O)CCC(C)(C(=O)O)O2 (stereo not drawn) [Trolox] |  | 440 ± 20 µg/mL | 680 ± 10 µg/mL | 650 ± 90 µg/mL | 170 ± 10 µg/mL | 220 ± 10 µg/mL |
